Here are results for 4 molecules from patent publication US10512642B2, “Therapeutic targeting of myeloproliferative neoplasms by DUSP1 inhibition” (Children's Hospital Medical Center, priority 2015, dated 2019).

One data set has as its system JAK2. The conditions noted are these: peripheral neuropathy and Wernicke encephalopathy; termination from phase III clinical trials; cited from earlier work.
The next data set concerns K562 cells. In words: Survival of K562 cells treated with imatinib +/- cytokines. The format is cell-based, human.
Another data set has as its system BCR/ABL induced leukemia. The experiment in a line: Retroviral bone marrow transduction transplantation CML model. The settings on record: mouse model of CML.
The test system of the next data set is MPN cells. In words: Colony forming unit (CFU) assay of MPN cells. The format is cell-based, mouse. The settings on record: in vitro CFU assay. The procedure:
To test this, hematopoietic CFU assays were performed using mouse bone marrow-derived Kit+ cells transduced with retroviruses expressing, pMSCV-Ires-GFP (vector), Jak2-V617F-Ires-GFP, Mpl-W515L-ires-GFP, and CSF3R-T618IIres-GFP.
Given the limitations of in vitro assays, performed in vivo experiments were then performed using bone marrow transduction transplantation assays. For in vivo analysis, mice were transplanted with 80-100 thousand bone marrow Kit^+ cells expressing Jak2-V617F-ires-GFP, CSF3R-T618I-Ires-GFP and MSCV-Ires-GFP (vector control). Mice received […] developed fatal MPD with a disease latency of 4-6 months.

Method for BCR/ABL induced leukemia: Kit^+ cells from mouse bone marrow were transduced with BCR/ABL-IRES-YFP retroviruses. Five thousand GFP^+ cells were plated for in vitro CFU assays, and 40,000 YFP^+ cells were transplanted for in vivo leukemia development in lethally irradiated C57Bl6 mice. […] Data shown are from two independent transplant experiments (n p=0.017). Below, Bar graphs illustrating leukemic burden in mice transplanted with BCR-ABL Kit^+ cells, measured by the level of YFP in peripheral blood as a surrogate for BCR/ABL expression.
For in vivo analysis, mice were transplanted with 40 thousand bone marrow Kit^+ cells expressing BCR/ABL and YFP.
To test c-Fos and Dusp1 as potential drug targets, in vitro and in vivo experiments were performed using small molecule inhibitors of c-Fos and Dusp1 (FIG. 5A). […] Representative data shown are the mean colony number from two independent experiments±S.D. (*=p<0.01, **=p<0.002). […] Data shown are from two independent transplant experiments (n=12; p=0.0285).
Next, in vivo efficacy was examined using a retroviral bone marrow transduction transplantation CML model.
Method for K562 cells: (J) Real-time qPCR analysis illustrating expression of c-FOS, DUSP1, and ZFP36 in primary CML patient peripheral blood mononuclear cells normalized to CD34+ cells from normal volunteers (black bar). Four chronic phase (CP) and three blast crisis (BC) patients were analyzed.
BaF3 cells were generated with tetracycline-inducible expression of BCR/ABL (BaF3-LTBA, FIG. 3A), as well as those with constitutive BCR/ABL expression (BAF3-BCR/ABL, FIG. 3B).

In the case of `Cc1cc(Nc2nc(N[C@@H](C)c3ncc(F)cn3)ncc2Cl)n[nH]1` [AZD1480], the neurological toxicity result with JAK2 is on record as “profound neurological toxicities”.
Regarding `Cc1ccc(NC(=O)c2ccc(CN3CCN(C)CC3)cc2)cc1Nc1nccc(-c2cccnc2)n1` [imatinib], in the data set with K562 cells, the “effect of erythropoietin on imatinib response” value is on record as “erythropoietin conferred imatinib resistance”.
As to `O=C1/C(=C/c2ccccc2)C(NC2CCCCC2)c2ccccc21` (stereo not drawn) [BCI, (E)-2-benzylidene-3-(cyclohexylamino)-2,3-dihydro-1H-inden-1-one], in the data set with BCR/ABL induced leukemia, the bioavailability entry is on record as “bioavailable” and the “target inhibition in vivo” value is on record as “inhibits its designated target”. Besides, the “targeting of MPN cells” value in the data set on MPN cells was “selective targeting of MPN cells”.
`Cc1cnc(Nc2ccc(OCCN3CCCC3)cc2)nc1Nc1cccc(S(=O)(=O)NC(C)(C)C)c1` [fedratinib]: in the data set on JAK2, the neurological toxicity entry is listed as “profound neurological toxicities”.
